US20240374598A1, “INHIBITORS OF HUMAN IMMUNODEFICIENCY VIRUS REPLICATION” (ViiV HEALTHCARE UK (NO.5) LIMITED, priority 2018, published 2024)

Legend:
[1] = Compound cytotoxicity, XTT-based colorimetric assay; format: cell-based; conditions: human; uninfected MT2 cells, day 4, XTT assay
Method: Compound cytotoxicity and the corresponding CC50 values were determined using the same protocol as described in the antiviral assay except that uninfected cells were used. Cytotoxicity was assessed on day 4 in uninfected MT2 cells by using a XTT (2,3-bis[2-Methoxy-4-nitro-5-sulfophenyl]-2H-tetrazolium-5-carboxyanilide inner salt)-based colorimetric assay (Sigma-Aldrich, St Louis, Mo).

[2] = test system: recombinant NL4-3 virus (nef section replaced with Renilla luciferase gene) in MT-2 cells; experiment: HIV cell culture assay (antiviral activity, luciferase readout); format: cell-based; conditions: NL43, MT-2 cells infected for 4-5 days with recombinant NL4-3 Renilla luciferase virus
Method: HIV cell culture assay—MT-2 cells, 293T cells and the proviral DNA clone of NL4-3 virus were obtained from the NIH AIDS Research and Reference Reagent Program. MT-2 cells were propagated in RPMI 1640 media supplemented with 10% heat inactivated fetal bovine serum (FBS), […]. The 293T cells were propagated in DMEM media supplemented with 10% heat inactivated FBS, […]. A recombinant NL4-3 proviral clone, in which a section of the nef gene was replaced with the Renilla luciferase gene, was used to make the reference virus used in these studies. The recombinant virus was prepared through transfection of the recombinant NL4-3 proviral clone into 293T cells using Transit-293 Transfection Reagent from Mirus Bio LLC (Madison, WI). Supernatent was harvested after 2-3 days and the amount of virus present was titered in MT-2 cells using luciferase enzyme activity as a marker by measuring luciferase enzyme activity. Luciferase was quantitated using the EnduRen Live Cell Substrate from Promega (Madison, WI). Antiviral activities of compounds toward the recombinant virus were quantified by measuring luciferase activity in MT-2 cells infected for 4-5 days with the recombinant virus in the presence of serial dilutions of the compound.
The 50% effective concentration (EC50) was calculated by using the exponential form of the median effect equation where (Fa)=1/[1+(ED50/drug conc.)m] (Johnson VA, Byington RT. Infectivity Assay. In Techniques in HIV Research. ed. Aldovini A, Walker BD. 71-76. New York: Stockton Press. 1990). The 50% inhibitory concentration (EC50) was calculated by using the exponential form of the median effect equation where percent inhibition=1/[1+(EC50/drug concentration)m], where m is a parameter that reflects the slope of the concentration-response curve.

Compound	CC50 at 4 day [1] [nM]	EC50 [2] [nM]
CC(C)(C)c1ccc2c(=O)n(-c3ccc(Cl)c4c(NS(C)(=O)=O)nn(CC(F)(F)F)c34)c([C@H](Cc3cc(F)cc(F)c3)NC(=O)Cn3nc(C(F)F)c4c3C(F)(F)[C@@H]3C[C@H]43)nc2c1 [Example 28, N—((S)-1-(7-(tert-butyl)-3-(4-chloro-3-(methylsulfonamido)-1-(2,2,2-trifluoroethyl)-1H-indazol-7-yl)-4-oxo-3,4-dihydroquinazolin-2-yl)-2-(3,5-difluorophenyl)ethyl)-2-((3bS,4aR)-3-(difluoromethyl)-5,5-difluoro-3b,4,4a,5-tetrahydro-1H-cyclopropa[3,4]cyclopenta[1,2-c]pyrazol-1-yl)acetamide]	> 1000	–
Cn1nc(NS(C)(=O)=O)c2c(Cl)ccc(-n3c([C@H](Cc4cc(F)cc(F)c4)NC(=O)Cn4nc(C(F)(F)F)c5c4C(F)(F)[C@@H]4C[C@H]54)nc4cc(C(C)(C)C)ccc4c3=O)c21 [Example 26, N—((S)-1-(7-(tert-butyl)-3-(4-chloro-1-methyl-3-(methylsulfonamido)-1H-indazol-7-yl)-4-oxo-3,4-dihydroquinazolin-2-yl)-2-(3,5-difluorophenyl)ethyl)-2-((3bS,4aR)-5,5-difluoro-3-(trifluoromethyl)-3b,4,4a,5-tetrahydro-1H-cyclopropa[3,4]cyclopenta[1,2-c]pyrazol-1-yl)acetamide]	> 1000	0.443
COc1nc2nc([C@H](Cc3cc(F)cc(F)c3)NC(=O)Cn3nc(C(F)F)c4c3C(F)(F)C3CC43)n(-c3ccc(Cl)c4c(NS(C)(=O)=O)nn(C)c34)c(=O)c2cc1Cl (stereo in doubt) [Example 37, N—((S)-1-(6-chloro-3-(4-chloro-1-methyl-3-(methylsulfonamido)-1H-indazol-7-yl)-7-methoxy-4-oxo-3,4-dihydropyrido[2,3-d]pyrimidin-2-yl)-2-(3,5-difluorophenyl)ethyl)-2-((3bS,4aR)-3-(difluoromethyl)-5,5-difluoro-3b,4,4a,5-tetrahydro-1H-cyclopropa[3,4]cyclopenta[1,2-c]pyrazol-1-yl)acetamide]	> 1000	0.044
COc1cnc2c(=O)n(-c3ccc(Cl)c4c(NS(C)(=O)=O)nn(C)c34)c([C@H](Cc3cc(F)cc(F)c3)NC(=O)Cn3nc(C(F)F)c4c3C(F)(F)C3CC43)nc2c1 (stereo in doubt) [Example 39, N—((S)-1-(3-(4-chloro-1-methyl-3-(methylsulfonamido)-1H-indazol-7-yl)-7-methoxy-4-oxo-3,4-dihydropyrido[3,2-d]pyrimidin-2-yl)-2-(3,5-difluorophenyl)ethyl)-2-((3bS,4aR)-3-(difluoromethyl)-5,5-difluoro-3b,4,4a,5-tetrahydro-1H-cyclopropa[3,4]cyclopenta[1,2-c]pyrazol-1-yl)acetamide]	> 1000	0.016
CC(C)Oc1ccc2c(=O)n(-c3ccc(Cl)c4c(NS(C)(=O)=O)nn(C)c34)c([C@H](Cc3cc(F)cc(F)c3)NC(=O)Cn3nc(C(F)F)c4c3C(F)(F)C3CC43)nc2n1 (stereo in doubt) [Example 38, N—((S)-1-(3-(4-chloro-1-methyl-3-(methylsulfonamido)-1H-indazol-7-yl)-7-isopropoxy-4-oxo-3,4-dihydropyrido[2,3-d]pyrimidin-2-yl)-2-(3,5-difluorophenyl)ethyl)-2-((3bS,4aR)-3-(difluoromethyl)-5,5-difluoro-3b,4,4a,5-tetrahydro-1H-cyclopropa[3,4]cyclopenta[1,2-c]pyrazol-1-yl)acetamide]	> 1000	0.045
CS(=O)(=O)Nc1nn(CC(F)F)c2c(-n3c([C@H](Cc4cc(F)cc(F)c4)NC(=O)Cn4nc(C(F)F)c5c4C(F)(F)[C@@H]4C[C@H]54)nc4cc(C5CC5)ccc4c3=O)ccc(Cl)c12 [Example 30, N—((S)-1-(3-(4-chloro-1-(2,2-difluoroethyl)-3-(methylsulfonamido)-1H-indazol-7-yl)-7-cyclopropyl-4-oxo-3,4-dihydroquinazolin-2-yl)-2-(3,5-difluorophenyl)ethyl)-2-((3bS,4aR)-3-(difluoromethyl)-5,5-difluoro-3b,4,4a,5-tetrahydro-1H-cyclopropa[3,4]cyclopenta[1,2-c]pyrazol-1-yl)acetamide]	> 1000	0.097
Cn1nc(NS(C)(=O)=O)c2c(Cl)ccc(-n3c([C@H](Cc4cc(F)cc(F)c4)NC(=O)Cn4nc(C(F)F)c5c4C(F)(F)[C@@H]4C[C@H]54)nc4cc(Br)ccc4c3=O)c21 [Example 1, N—((S)-1-(7-bromo-3-(4-chloro-1-methyl-3-(methylsulfonamido)-1H-indazol-7-yl)-4-oxo-3,4-dihydroquinazolin-2-yl)-2-(3,5-difluorophenyl)ethyl)-2-((3bS,4aR)-3-(difluoromethyl)-5,5-difluoro-3b,4,4a,5-tetrahydro-1H-cyclopropa[3,4]cyclopenta[1,2-c]pyrazol-1-yl)acetamide]	> 1000	0.046
Cn1nc(NS(C)(=O)=O)c2c(Cl)ccc(-n3c([C@H](Cc4cc(F)cc(F)c4)NC(=O)Cn4nc(C(F)F)c5c4C(F)(F)[C@@H]4C[C@H]54)nc4cc(C5CCCCC5)ccc4c3=O)c21 [Example 34, N—((S)-1-(3-(4-chloro-1-methyl-3-(methylsulfonamido)-H-indazol-7-yl)-7-cyclohexyl-4-oxo-3,4-dihydroquinazoin-2-yl)-2-(3,5-difluorophenyl)ethyl)-2-((3bS,4aR)-3-(difluoromethyl)-5,5-difluoro-3b,4,4a,5-tetrahydro-1H-cyclopropa[3,4]cyclopenta[1,2-c]pyrazol-1-yl)acetamide]	> 1000	0.597
CCc1ccc2c(=O)n(-c3ccc(Cl)c4c(NS(C)(=O)=O)nn(C)c34)c([C@H](Cc3cc(F)cc(F)c3)NC(=O)Cn3nc(C(F)F)c4c3C(F)(F)[C@@H]3C[C@H]43)nc2c1 [Example 16, N—((S)-1-(3-(4-chloro-1-methyl-3-(methylsulfonamido)-1H-indazol-7-yl)-7-ethyl-4-oxo-3,4-dihydroquinazolin-2-yl)-2-(3,5-difluorophenyl)ethyl)-2-((3bS,4aR)-3-(difluoromethyl)-5,5-difluoro-3b,4,4a,5-tetrahydro-1H-cyclopropa[3,4]cyclopenta[1,2-c]pyrazol-1-yl)acetamide]	> 1000	0.084
COc1cc(F)c2c(=O)n(-c3ccc(Cl)c4c(NS(=O)(=O)C5CC5)nn(CC(F)F)c34)c([C@H](Cc3cc(F)cc(F)c3)NC(=O)Cn3nc(C(F)F)c4c3C(F)(F)[C@@H]3C[C@H]43)nc2c1 [Example 8, N—((S)-1-(3-(4-chloro-3-(cyclopropanesulfonamido)-1-(2,2-difluoroethyl)-1H-indazol-7-yl)-5-fluoro-7-methoxy-4-oxo-3,4-dihydroquinazolin-2-yl)-2-(3,5-difluorophenyl)ethyl)-2-((3bS,4aR)-3-(difluoromethyl)-5,5-difluoro-3b,4,4a,5-tetrahydro-1H-cyclopropa[3,4]cyclopenta[1,2-c]pyrazol-1-yl)acetamide]	> 1000	0.15
CCCCOc1ccc2c(=O)n(-c3ccc(Cl)c4c(NS(C)(=O)=O)nn(C)c34)c([C@H](Cc3cc(F)cc(F)c3)NC(=O)Cn3nc(C(F)F)c4c3C(F)(F)[C@@H]3C[C@H]43)nc2c1 [Example 11, N—((S)-1-(7-butoxy-3-(4-chloro-1-methyl-3-(methylsulfonamido)-1H-indazol-7-yl)-4-oxo-3,4-dihydroquinazolin-2-yl)-2-(3,5-difluorophenyl)ethyl)-2-((3bS,4aR)-3-(difluoromethyl)-5,5-difluoro-3b,4,4a,5-tetrahydro-1H-cyclopropa[3,4]cyclopenta[1,2-c]pyrazol-1-yl)acetamide]	> 1000	0.208
Cn1nc(NS(C)(=O)=O)c2c(Cl)ccc(-n3c([C@H](Cc4cc(F)cc(F)c4)NC(=O)Cn4nc(C(F)F)c5c4C(F)(F)[C@@H]4C[C@H]54)nc4cc(C5CCCC5)ccc4c3=O)c21 [Example 32, N—((S)-1-(3-(4-chloro-1-methyl-3-(methylsulfonamido)-1H-indazol-7-yl)-7-cyclopentyl-4-oxo-3,4-dihydroquinazolin-2-yl)-2-(3,5-difluorophenyl)ethyl)-2-((3bS,4aR)-3-(difluoromethyl)-5,5-difluoro-3b,4,4a,5-tetrahydro-1H-cyclopropa[3,4]cyclopenta[1,2-c]pyrazol-1-yl)acetamide]	> 1000	0.285
